Consider two compounds from US10442837B2, “Scorpion venom heat-resistant synthetic peptide and applications thereof” (priority 2016, dated 2019).

Each structure is given as a SMILES string. Peptide text beside a SMILES is read from it. Some results are limits rather than exact numbers.

In data set [1] the test system is Kunming mice. Kind of data set: Acute toxicity test, intraperitoneal injection. The data set is classed as in vivo. The settings on record: 78.6 mg/kgBW ip.
Data set [2] concerns Kunming mice. As to the kind of experiment: Acute toxicity test, intraperitoneal injection. It counts as in vivo. An excerpt: 1) Main Observation Indicators:
(2) Minimal lethal dose (MLD): a dose that causes death in individual tested animals;
(3) The highest dose of nontoxic reaction (highest nontoxic dose): that is, no observed adverse effect level ([…]), i.e. the highest dose under which no injury is found for animals in a certain period of time;
(4) Minimum toxic reaction dose: minimum dose of toxic reaction in animals: that is the lowest dose of the toxic reaction in animals whose toxic responses are just caused.
(1) Tested animals: Kunming mice, half male and half female (healthy adult, weight 19-20 g);
(2) Subjects: SVHRSP: • a. source: BmK scorpion venom extract purchased from Henan Yichang Xinxin Scorpion Factory (May 28, 2012); • b. Lot No: P160418-CQ455216; • c. Content (or specification): 10 mg/piece; • d. Preservation conditions and preparation methods: −20° C. for long-term preservation, 4° C. for preservation within 7-10 d, and redissolved with millipore water when in use.
(3) Administration Route: respectively ip (intraperitoneal injection) route (the largest volume commonly used in mice ip route administration is 0.1-1.0 ml/20 gBW) the optimal administration doses to the animals (the doses are different, but the administration capacity is identical) are selected according to the route of administration, and 0.2 ml/20 gBW is adopted for the ip administration routes in this experiment.
According to the approximate lethal dose method, list the possible sequences:
the possible maximum tolerance dose and the possible minimum lethal dose of the SVHRSP are estimated according to the acute toxicity test results of the former scorpion venom heat-resistant polypeptide on Kunming mice. Then, a dose sequence table containing several doses is designed according to the 50% incremental method:
The possible lethal dose ranges (115.2, 76.8, 51.2, 34.1 mg/kg) are found from the estimated dose sequence list, where each dose is given to one animal, the minimum lethal dose and the maximum tolerated dose are measured, and then the dose between the two is given to an animal. If the animal under this dose doesn't die, the range between this dose and the minimum lethal dose is the approximate lethal dose range; if the animal under this dose dies, the range between this dose and the maximum tolerance dose is the approximate lethal dose range.

The subject of data set [3] is lithium-pilocarpine epilepsy model rats. As to the kind of experiment: Lithium-pilocarpine refractory epilepsy chronic model, episodes. It counts as in vivo, SD rats. As to conditions: 300 mg/kg, n = 9. The procedure: (1) Selection and groups of animals that 180 g healthy male SD rats are selected. Lithium-pilocarpine ip (intraperitoneal administration) 300 mg/kg is used to induce temporal lobe epilepsy episodes. After 15 days of acute epilepsy episode, epilepsy rats are randomly divided into a model group and a model administration group. […] The levels of epilepsy are observed and recorded, and graded according to Racine as the evaluation criteria.

As for `CC(C)C[C@H](NC(=O)[C@@H](NC(=O)[C@@H](N)CCCCN)C(C)C)C(=O)N[C@@H](CC(N)=O)C(=O)NCC(=O)N1CCC[C@H]1C(=O)N[C@@H](CCC(=O)O)C(=O)N[C@@H](CCC(=O)O)C(=O)N[C@@H](CCC(=O)O)C(=O)N[C@@H](C)C(=O)N[C@@H](C)C(=O)N[C@@H](C)C(=O)N1CCC[C@H]1C(=O)N[C@@H](C)C(=O)N[C@@H](CCC(=O)O)C(=O)O` [SVHRSP] (H-KVLNGPEEEAAAPAE-OH), the “Lethal (%)” value in the data set on Kunming mice [1], in the data set on Kunming mice [2] (115.2 mg/kgBW ip), in the data set on Kunming mice [2] (172.8 mg/kgBW ip), in the data set with Kunming mice [2] (500 mg/kgBW ip) and with Kunming mice [2] (2000 mg/kgBW ip) was 0% throughout. Besides, the “Survival (%)” value with Kunming mice [1], in the data set on Kunming mice [2] (115.2 mg/kgBW ip), in the data set with Kunming mice [2] (172.8 mg/kgBW ip), with Kunming mice [2] (500 mg/kgBW ip) and in the data set with Kunming mice [2] (2000 mg/kgBW ip) was 100% throughout. Moreover, the “Toxic Reaction” value with Kunming mice [2] (2000 mg/kgBW ip) is given as “no any toxic reaction is observed”. Also, the “ratio of medicinal safety and pharmacodynamic activity (2000/0.05)” value with Kunming mice [2] (ip 2000 mg/kg vs 0.05 mg/kg effective dose) is given as > 40,000 times. Also, the “maximum non-toxic dose (highest nontoxic dose, no observed adverse effect level)” value in the data set with Kunming mice [2] (ip, up to 2000 mg/kg·BW) is reported as “has not reached yet”.
Take `CCCC(CCC)C(=O)[O-].[Na+]` [sodium valproate]: the “Total Episode Averages superimposed ± Standard Deviation” value in data set [3] (First day) is reported as 2.67 ± 0.85; in data set [3] (First eight days), 15.11 ± 2.73; in data set [3] (First eleven days), 18.89 ± 3.13; in data set [3] (First fifteen days), 23.56 ± 3.79; in data set [3] (First five days) it was 11.67 ± 2.24; in data set [3] (First four days), 9.56 ± 1.96. The “Total Episode Averages superimposed ± Standard Deviation” value came to 22.67 ± 3.56 in data set [3] (First fourteen days); 16.33 ± 3.05 in data set [3] (First nine days); 13.89 ± 2.45 in data set [3] (First seven days); 12.67 ± 2.30 in data set [3] (First six days); 17.55 ± 2.91 in data set [3] (First ten days); 21.78 ± 3.58 in data set [3] (First thirteen days). Moreover, the “Total Episode Averages superimposed ± Standard Deviation” value in data set [3] (First twelve days) was found to be 20.56 ± 3.33; in data set [3] (First two days) it was 5.56 ± 1.27.
